Assay results reported in the pKa sets of Baltruschat and Czodrowski (2020).

Conditions: acidic group

Question: For `Cc1ccc(S(=O)(=O)Nc2ccccc2)cc1`, which pKa is on record?
Answer: 8.46

Question: Which pKa does the source give for `C[n+]1ccc(C(=O)Cc2ccccc2)cc1` here?
Answer: 9.02

Question: Which pKa does the source give for `N#CC(C#N)=NNc1ccc(Cl)cc1` here?
Answer: 6.15

Question: For `[S-]c1nc(S)c2[nH]cnc2n1`, which pKa is on record?
Answer: 9.97

Question: For `NC(=O)Cc1ccc(C(=O)O)cc1`, which pKa is on record?
Answer: 4.06

Question: Which pKa does the source give for `CCOO` here?
Answer: 11.8

Question: Which pKa does the source give for `O=C(O)/C=C/c1ccc(O)cc1` here?
Answer: 4.64

Question: For `CC(=O)C(Cc1ccc(Cl)cc1)C(C)=O`, which pKa is on record?
Answer: 10.2

Question: Which pKa does the source give for `COc1nc(N)c2[nH]cnc2n1` here?
Answer: 10

Question: With `O=N/C(=N/O)c1ccccc1` as the compound, how does the pKa read?
Answer: 4.9

Question: Which pKa does the source give for `CN(C)c1ccc(C(=S)Nc2ccccc2)cc1` here?
Answer: 11.2

Question: For `Cc1nnn(CC(=O)O)n1`, which pKa is on record?
Answer: 2.23

Question: With `O=Cc1cccc(O)c1` as the compound, how does the pKa read?
Answer: 8.86

Question: Which pKa does the source give for `O=S(Cc1ccccc1)c1cnn[nH]1` (stereo unspecified) here?
Answer: 6.09

Question: For `O=C(O)c1ccc(/N=C/c2ccccc2)cc1`, which pKa is on record?
Answer: 4.47

Question: With `O=C(O)c1ccc(OCc2ccccc2)cc1` as the compound, how does the pKa read?
Answer: 4.44

Question: With `O=C(O)[C@@H]1O[C@H](Oc2ccc3[nH+]ccc(O)c3c2)[C@@H](O)[C@H](O)[C@H]1O` as the compound, how does the pKa read?
Answer: 3.15

Question: Which pKa does the source give for `CC(=O)c1cc(C(C)=O)[nH]n1` here?
Answer: 8.98

Question: With `O=C(O)CC(c1[nH]cc[nH+]1)c1[nH]cc[nH+]1` as the compound, how does the pKa read?
Answer: 2.79

Question: Which pKa does the source give for `O=[N+]([O-])c1ccc(O)c(C[NH+]2CCOCCOCCOCCOCCOCC2)c1` here?
Answer: 5.77

Question: For `CC(=O)c1ccc(C(=O)O)cc1`, which pKa is on record?
Answer: 3.72

Question: For `O=CC1CCCC1=O` (stereo unspecified), which pKa is on record?
Answer: 5.83

Question: For `[NH3+][C@H]1CC[C@H](C(=O)O)CC1`, which pKa is on record?
Answer: 3.92

Question: For `CO[C@H]1O[C@H](C(=O)O)[C@H](O)[C@H](O)[C@H]1O`, which pKa is on record?
Answer: 3.55

Question: With `O=[N+]([O-])c1cccc(O)c1[O-]` as the compound, how does the pKa read?
Answer: 11.5

Question: With `C[n+]1cc(S)cc2ccccc21` as the compound, how does the pKa read?
Answer: 2.4

Question: For `N#CC(Cc1ccccc1)C(=O)O` (stereo unspecified), which pKa is on record?
Answer: 2.24

Question: With `O=C(O)CCCc1cccs1` as the compound, how does the pKa read?
Answer: 4.54

Question: Which pKa does the source give for `O=c1cc(O)c2ccccc2o1` here?
Answer: 4.1

Question: Which pKa does the source give for `CC1(C)CC(=O)CC1=O` here?
Answer: 4.2

Question: With `C[NH+](C)Cc1cc(Cl)cc(C[NH+](C)C)c1O` as the compound, how does the pKa read?
Answer: 5.2

Question: Which pKa does the source give for `Cc1ccc(Sc2ccc([N+](=O)[O-])cc2C(=O)O)cc1` here?
Answer: 2.84

Question: With `O=C(O)C1CC1(Br)Br` (stereo unspecified) as the compound, how does the pKa read?
Answer: 3.57

Question: For `CC[NH+]1CCC[C@@H]1CNC(=O)c1c(OC)ccc([N+](=O)[O-])c1O`, which pKa is on record?
Answer: 5.75

Question: With `O=S(=O)(Nc1cccc(C(F)(F)F)c1)C(F)(F)F` as the compound, how does the pKa read?
Answer: 3.5

Question: Which pKa does the source give for `COc1cccc(-c2nnn[nH]2)c1` here?
Answer: 3.91

Question: Which pKa does the source give for `Oc1cccc2cccnc12` here?
Answer: 9.77

Question: For `O=C(O)c1cccc(S)c1`, which pKa is on record?
Answer: 3.96

Question: With `CCC(C)(O)C(C(=O)O)c1ccc(-c2ccccc2)cc1` (stereo unspecified) as the compound, how does the pKa read?
Answer: 3.41

Question: Which pKa does the source give for `S=C(Nc1ccc(Cl)c(Cl)c1)c1ccc(Cl)cc1` here?
Answer: 9.51

Question: For `O=C(NO)c1ccccc1O`, which pKa is on record?
Answer: 7.39

Question: Which pKa does the source give for `Cc1c[nH]cc1C(=O)O` here?
Answer: 5.65

Question: Which pKa does the source give for `CC(C)CCC([NH3+])C(=O)O` (stereo unspecified) here?
Answer: 3.06

Question: For `CCC(=O)NBr`, which pKa is on record?
Answer: 8.2

Question: For `O[n+]1ccccc1`, which pKa is on record?
Answer: 0.77

Question: Which pKa does the source give for `O=S(=O)(Nc1cccc(C(F)(F)F)c1)c1ccccc1` here?
Answer: 7.63

Question: Which pKa does the source give for `CC(C)C1CC(CC(=O)O)[NH2+]C1C(=O)O` (stereo unspecified) here?
Answer: 2.1

Question: With `Nc1ccc(S(=O)(=O)Nc2cccnc2)cc1` as the compound, how does the pKa read?
Answer: 7.89

Question: Which pKa does the source give for `C[C@@]12CC(=O)N[C@]1(CCC(=O)O)C(=O)NC2=O` here?
Answer: 4.4

Question: Which pKa does the source give for `NC(=O)/C(=N\O)c1ccccc1` here?
Answer: 10.1

Question: Which pKa does the source give for `Cn1c(N)nc2nc[nH]c2c1=O` here?
Answer: 10.4

Question: Which pKa does the source give for `CCCCCCCCc1c(-c2ccccc2)n[nH]c1O` here?
Answer: 10.2

Question: For `COC(=O)CC(=N/[O-])/C(C)=N/O`, which pKa is on record?
Answer: 11.6

Question: With `Cc1c(O)n[nH]c1-c1ccccc1` as the compound, how does the pKa read?
Answer: 7.6

Question: Which pKa does the source give for `Cc1cc(O)cc(C)[o+]1` here?
Answer: 0.38

Question: Which pKa does the source give for `Cn1ccnc1CS` here?
Answer: 8.88

Question: For `Cc1cc(O)cc([N+](C)(C)C)c1`, which pKa is on record?
Answer: 8.2

Question: Which pKa does the source give for `C#CC#CC=C=CC(O)CCC(=O)O` (stereo unspecified) here?
Answer: 4.8

Question: With `[O-]/N=C1\CCCCC\C1=N/O` as the compound, how does the pKa read?
Answer: 12.3

Question: Which pKa does the source give for `Oc1ccc2cccc(-c3ccccc3)c2c1` here?
Answer: 9.38

Question: With `[NH3+]C(c1cccc(O)c1O)P(=O)([O-])[O-]` (stereo unspecified) as the compound, how does the pKa read?
Answer: 9.44

Question: Which pKa does the source give for `C[C@H](O)C(=O)C1=Nc2c(nc(N)[nH+]c2O)NC1` here?
Answer: 1.45

Question: For `Cc1ccnc(NS(=O)(=O)c2ccc(N)cc2)n1`, which pKa is on record?
Answer: 6.59

Question: With `O=C1CCCC1=O` as the compound, how does the pKa read?
Answer: 9.14

Question: Which pKa does the source give for `NC(=O)C1=CN2CCC1CC2` here?
Answer: 7.32

Question: With `C/C(=N\O)C(=O)CO` as the compound, how does the pKa read?
Answer: 9.16

Question: For `C[Si](C)(CCl)CCCC(=O)O`, which pKa is on record?
Answer: 4.97

Question: For `C[C@@H]1[NH2+][C@H](CCCCCCCC(=O)O)CC[C@@H]1O`, which pKa is on record?
Answer: 4.6

Question: Which pKa does the source give for `CC(=O)CC=O` here?
Answer: 6.12

Question: Which pKa does the source give for `CC(=O)c1cc(C)c(C)cc1O` here?
Answer: 11.6

Question: With `CC/C=C/CC1=[NH+]C(C(=O)O)[C@@H]2SC(C)(C)C(C(=O)O)N12` (stereo partly specified) as the compound, how does the pKa read?
Answer: 2.4

Question: For `Cc1ccc(C(=S)Nc2ccccc2)cc1`, which pKa is on record?
Answer: 11.5

Question: For `CC[NH+](CC)CC(=N\O)/C(C)=N/O`, which pKa is on record?
Answer: 8.5

Question: Which pKa does the source give for `O=S(=O)([O-])c1c(O)ccc2[nH]ncc12` here?
Answer: 10.6

Question: With `Nc1ccc(S(=O)(=O)Nc2ncco2)cc1` as the compound, how does the pKa read?
Answer: 6.5

Question: For `CC1=NS(=O)(=O)c2ncccc2N1`, which pKa is on record?
Answer: 7.58

Question: For `NS(=O)(=O)c1nccs1`, which pKa is on record?
Answer: 8.25

Question: For `CC(=O)[C@@H]1C[C@H](C(=O)O)C1(C)C`, which pKa is on record?
Answer: 4.63

Question: For `O=S(=O)(Nc1ccccc1)c1ccccc1`, which pKa is on record?
Answer: 8.22

Question: With `O=C(O)c1cc(=O)cc(-c2ccccc2)o1` as the compound, how does the pKa read?
Answer: 1.51

Same assay, conditions: basic group

Question: For `CC1=CC(=C2C=CC=CC=C2)C=C(C)C1=O`, which pKa is on record?
Answer: 6.26

Question: Which pKa does the source give for `N#CC(C#N)=NNc1ccc(Cl)cc1` here?
Answer: -0.79

Question: For `COc1ccc2nccc(N)c2c1`, which pKa is on record?
Answer: 8.94

Question: With `CCNc1nc(NCC)nc(NCC)n1` as the compound, how does the pKa read?
Answer: 5.84

Question: For `c1ccc(CN(Cc2ccccc2)Cc2ccccc2)cc1`, which pKa is on record?
Answer: 7.44

Question: For `CNCCCNC`, which pKa is on record?
Answer: 10.7
